Reference: publication PMC4076047 (Nature chemical biology, 2014)
Structures can show the parent of a compound that is named as a salt.

Biological target: Vps35 (retromer core complex Vps35–Vps29–Vps26) (Homo sapiens, UniProt Q96QK1+Q9UBQ0)
Experiment: microscale thermophoresis
Assay type: binding

Kd: ~5 µM
SMILES: N=C(N)SCc1ccc(CSC(=N)N)s1 [compound 1, thiophene-2,5-diylbis(methylene) dicarbamimidothioate dihydrochloride]
